Source: patent US10385034B2, “Flavonoid IL-17A inhibitors” (THE CLEVELAND CLINIC FOUNDATION, priority 2014, dated 2019)

Experiments:
[1] = test system: human mammary epithelial cells (HMEC); experiment: IL-17A-induced CXCL1 (Groα) production, ELISA; assay type: cell-based; details: IL-17 100 ng/ml, 24 h
Source text: (§1) Reagents, cell culture and mice. Purified proteins of human IL-17A, human IL-17E (IL-25), human IL-17RA-Fc (extracellular domain 1-322 AA fused with Fc region of human IgG1 at the C-terminus), human IL-17RB-Fc (extracellular domain 1-289 AA fused with Fc region of human IgG1 at the C-terminus), human horseradish peroxidase (HRP)-conjugated IgG Fc secondary antibody were purchased from Sino Biological Inc. Human and mouse IL-17A and mouse IL-23 used for cell culture and animal injection were purchased from R&D Systems. Human mammary epithelial cells were maintained in Medium 171 plus mammary epithelial growth supplement (MEGS) purchased from Invitrogen, which contain bovine pituitary extract (BPE) (0.4% v/v), recombinant human insulin-like growth factor-I (1 μg/ml), hydrocortisone (0.5 μg/ml) and human epidermal growth factor (3 ng/ml). A549 cells were maintained in RPMI supplemented with 10% FCS and 100 U/ml penicillin and 100 μg/ml streptomycin. All mice were obtained from Jackson laboratory.
(§2) ELISA. Groα and IL-17A levels were assayed by ELISA kits (R&D systems) according to the manufacturer's instruction.

[2] = test system: A549 cells; experiment: IL-17A-induced CXCL1 (Groα) production, ELISA; assay type: cell-based, human; details: A549, IL-17 100 ng/ml, 24 h
Source text: as §1, §2

[3] = test system: IL-17A-induced gene expression in lung tissue; experiment: Intranasal injection of IL-17A (lung inflammation); assay type: in vivo; details: BALB/c mice, A18 4 μg per mouse intranasal with IL-17A 1 μg, 4 h
Method: Intranasal injection of IL-17A. Eight-week WT BALB/cJ female mice were subjected to intranasal injection of PBS, 1 μg of IL-17A with or without A18 (4 μg per mouse). […]
Real-time PCR. Total RNA was extracted from spinal cords and cultured astrocytes with TRIzol (Invitrogen) according to the manufacturer's instructions. All gene expression results are expressed as arbitrary units relative to expression of the gene encoding beta-actin.

[4] = test system: HFD-induced AHR; experiment: High-fat-diet-induced airway hyperreactivity; assay type: in vivo; details: A18 30 μg per mouse i.p., last 10 days of HFD
Method: High-fat-diet intervention. Starting at 4 weeks of age, WT C57BL/6 male mice were fed with 10 kcal % fat chow diet (CD) or a 60 kcal % HFD for 14 weeks. HFD+A18 group of mice were i.p. injected with A18 (30 μg per mouse) daily for 10 days before subjection to AHR measurement. Both CD (D12450B) or HFD (D12492) were obtained from Research Diets, Inc. Measurement of AHR. AHR was measured in mice in response to increasing doses of inhaled methacholine. Mice were anesthetized with i.p. pentobarbital sodium (60 mg/kg). After the intubation and the placement of a 19-gauge cannula through a tracheotomy incision, the cannula was affixed with a silk suture ligation. Mice were connected to a computer-controlled piston ventilator run at a rate of 150 breaths/min, a tidal volume of 0.2 ml, and a positive end-expiratory pressure of 2-3 cm H2O (Flexivent). Mice were then administered a muscle relaxant (pancuronium bromide, 800 mg/kg), and the lungs were expanded twice to total lung capacity at an amplitude pressure of 30 cm H2O. […] Lung resistance (RL) was obtained through forced oscillation technique by FlexiVent 5.2 (Flexivent; Scireq) software. Real-time PCR. […] All gene expression results are expressed as arbitrary units relative to expression of the gene encoding beta-actin.

[5] = test system: HDM-induced allergic airway disease; experiment: House dust mite (HDM)-induced asthma; assay type: in vivo; details: C57BL/6 mice, A18 30 μg per mouse i.p. daily
Method: Measurement of AHR. AHR was measured in mice in response to increasing doses of inhaled methacholine. Mice were anesthetized with i.p. pentobarbital sodium (60 mg/kg). After the intubation and the placement of a 19-gauge cannula through a tracheotomy incision, the cannula was affixed with a silk suture ligation. Mice were connected to a computer-controlled piston ventilator run at a rate of 150 breaths/min, a tidal volume of 0.2 ml, and a positive end-expiratory pressure of 2-3 cm H2O (Flexivent). Mice were then administered a muscle relaxant (pancuronium bromide, […]), and the lungs were expanded twice to total lung capacity at an amplitude pressure of 30 cm H2O. Each mouse was aerosolized with methacholine in saline at doses of 0 mg/ml, 12.5 mg/ml, 25 mg/ml, and 50 mg/ml, delivered over 10 s through an in-line nebulizer. Lung resistance (RL) was obtained through forced oscillation technique by FlexiVent 5.2 (Flexivent; Scireq) software. House dust mite (HDM)-induced asthma. WT C57BL/6 mice were sensitized intratracheally (i.t.) with HDM (Dermatophagoides farina, 100 μg per mouse, Greer Laboratories) on day 0 and subsequently challenged (i.t.) with HDM (100 μg per mouse) from day 7 for 5 days. […] All gene expression results are expressed as arbitrary units relative to expression of the gene encoding beta-actin.

[6] = test system: D4M melanoma cells; experiment: Experimental melanoma lung metastasis; assay type: in vivo; details: C57BL/6, 1×10^6 D4M cells tail vein, A18 60 μg/mouse daily, day 20
Method: Melanoma pulmonary metastasis is indicative of poor prognosis. The experimental lung metastasis has been used to test the ability of tumor cell migration, growth at distant sites, effects of drugs for treatment of lung metastasis. In this model, melanoma cells are injected through tail vein, and metastatic lesions can be established in the lung after 2-3 weeks. Here we used this experimental lung metastasis model to test the possible impact of A18 on melanoma re-establishment at distant lung tissue. […] melanoma cells (Jenkins et al., Pigment cell & melanoma research 27, 495-501 (2014)), (1×10^6 cells) were injected into C57BL/6 mouse through tail vein. The control group mice were injected with 200 μl PBS daily, the other group mice were injected with 60 μg A18/mouse daily. The Histological sections were obtained from lung tissue at day 20.

Oc1cc(O)c2cc(O)c(-c3ccc(O)c(O)c3)[o+]c2c1.[Cl-] [A18, 2-(3,4-Dihydroxyphenyl)-3,5,7-trihydroxy-1-benzopyrylium chloride]
IL-17A-mediated CXCL1 production [1]: greatly inhibited | IL-17A-mediated CXCL1 production [2]: greatly inhibited | IL-17A-induced gene expression in lung [3]: greatly inhibited | HFD-induced AHR ([4]; C57Bl/6 mice): substantially attenuated | HFD-induced inflammatory gene expression in lung ([4]; C57Bl/6 mice): substantially attenuated | HFD-induced production of IL-17A in the lung ([4]; cultured lung cells): no impact | HDM-induced AHR [5]: reduced | HDM-induced inflammatory gene expression [5]: reduced | Lung metastasis tumors [6]: Fewer and smaller
